Reference: ChEMBL document CHEMBL1138648, “Synthesis of new N-(2-(trifluoromethyl)pyridin-4-yl)anthranilic acid derivatives and their evaluation as anticancer agents” (2004)

How the values were obtained:
Format in all cases: functional
SF-295 = test: Growth inhibitory activity against CNS cancer SF-295 cell line was determined; conditions: Homo sapiens
PC-3 = test: Growth inhibitory activity against Prostate cancer PC-3 cell line was determined; conditions: Homo sapiens
UACC-257 = test: Growth inhibitory activity against Melanoma UACC-257 cell line was determined; conditions: Homo sapiens
NCI-H23 = test: Growth inhibitory activity against non small cell lung cancer NCI-H23 cell line was determined; conditions: Homo sapiens
NCI-H322M = test: Growth inhibitory activity against non small cell lung cancer NCI-H322M cell line was determined; conditions: Homo sapiens
MCF7 [1] = test: Growth inhibitory activity against Breast cancer MCF-7 cell line was determined; conditions: Homo sapiens
SK-MEL-5 = test: Growth inhibitory activity against Melanoma SK-MEL-5 cell line was determined; conditions: Homo sapiens
Hs-578T = test: Growth inhibitory activity against Breast cancer HS 578T cell line was determined; conditions: Homo sapiens
NCI-H460 [2] = test: Growth inhibitory activity against non small cell lung cancer H460 cell line was determined; conditions: Homo sapiens
BT-549 = test: Growth inhibitory activity against Breast cancer BT-549 cell line was determined; conditions: Homo sapiens
HOP-92 = test: Growth inhibitory activity against non small cell lung cancer HOP-92 cell line was determined; conditions: Homo sapiens
MOLT-4 = test: Growth inhibitory activity against Leukemia MOLT-4 cell line was determined; conditions: Homo sapiens
SF-268 [3] = test: Growth inhibitory activity against CNS cancer SF-268 cell line was determined; conditions: Homo sapiens
HL-60 = test: Growth inhibitory activity against Leukemia HL-60(TB) cell line was determined; conditions: Homo sapiens
SNB-19 = test: Growth inhibitory activity against CNS cancer SNB-19 cell line was determined; conditions: Homo sapiens
A498 = test: Growth inhibitory activity against Renal cancer A498 cell line was determined; conditions: Homo sapiens
OVCAR-8 = test: Growth inhibitory activity against Ovarian cancer OVCAR-8 cell line was determined; conditions: Homo sapiens
UACC-62 = test: Growth inhibitory activity against Melanoma UACC-62 cell line was determined; conditions: Homo sapiens
EKVX = test: Growth inhibitory activity against non small cell lung cancer EKVX cell line was determined; conditions: Homo sapiens
SR = test: Growth inhibitory activity against Leukemia SR cell line was determined; conditions: Homo sapiens
TK-10 = test: Growth inhibitory activity against Renal cancer TK-10 cell line was determined; conditions: Homo sapiens
SF-268 [4] = test: In vitro percent of proliferation of vehicle treated SF-268 human CNS cell lines was determined at 0.0010 M concentration
A549 = test: Growth inhibitory activity against non small cell lung cancer A549/ATCC cells; conditions: Homo sapiens
SK-OV-3 = test: Growth inhibitory activity against Ovarian cancer SK-OV-3 cell line was determined; conditions: Homo sapiens
HT-29 = test: Growth inhibitory activity against colon cancer HT-29 cell line was determined; conditions: Homo sapiens
U-251 = test: Growth inhibitory activity against CNS cancer U251 cell line was determined; conditions: Homo sapiens
MDA-MB-435 = test: Growth inhibitory activity against Breast cancer MDA-MB-435 cell line was determined; conditions: Homo sapiens
RXF 393 = test: Growth inhibitory activity against Renal cancer RXF 393 cell line was determined; conditions: Homo sapiens
786-0 = test: Growth inhibitory activity against Renal cancer 786-0 cell line was determined; conditions: Homo sapiens
HCT-116 = test: Growth inhibitory activity against colon cancer HCT116 cell line was determined; conditions: Homo sapiens
KM12 = test: Growth inhibitory activity against colon cancer KM12 cell line was determined; conditions: Homo sapiens
SN12C = test: Growth inhibitory activity against Renal cancer SN12C cell line was determined; conditions: Homo sapiens
SK-MEL-28 = test: Growth inhibitory activity against Melanoma SK-MEL-28 cell line was determined; conditions: Homo sapiens
M14 = test: Growth inhibitory activity against Melanoma M14 cell line was determined; conditions: Homo sapiens
HCT-15 = test: Growth inhibitory activity against colon cancer HCT-15 cell line was determined; conditions: Homo sapiens
RPMI-8226 = test: Growth inhibitory activity against Leukemia RPMI-8226 cell line was determined; conditions: Homo sapiens
K562 = test: Growth inhibitory activity against Leukemia K-562 cell line was determined; conditions: Homo sapiens
COLO 205 = test: Growth inhibitory activity against colon cancer COLO 205 cell line was determined; conditions: Homo sapiens
OVCAR-5 = test: Growth inhibitory activity against Ovarian cancer OVCAR-5 cell line was determined; conditions: Homo sapiens
ACHN = test: Growth inhibitory activity against Renal cancer ACHN cell line was determined; conditions: Homo sapiens
CAKI-1 = test: Growth inhibitory activity against Renal cancer CAKI-1 cell line was determined; conditions: Homo sapiens
NCI/ADR-RES = test: Growth inhibitory activity against Breast cancer NCI/ADR-RES cell line was determined; conditions: Homo sapiens
OVCAR-3 = test: Growth inhibitory activity against Ovarian cancer OVCAR-3 cell line was determined; conditions: Homo sapiens
DU-145 = test: Growth inhibitory activity against Prostate cancer DU-145 cell line was determined; conditions: Homo sapiens
CCRF-CEM = test: Growth inhibitory activity against Leukemia CCRF-CEM cell line was determined; conditions: Homo sapiens
NCI-H522 = test: Growth inhibitory activity against non small cell lung cancer H522 cell line was determined; conditions: Homo sapiens
MCF7 [5] = test: In vitro percent of proliferation of vehicle treated MCF-7 human breast cell lines was determined at 0.0010 M concentration
SF-539 = test: Growth inhibitory activity against CNS cancer SF-539 cell line was determined; conditions: Homo sapiens
OVCAR-4 = test: Growth inhibitory activity against Ovarian cancer OVCAR-4 cell line was determined; conditions: Homo sapiens
NCI-H226 = test: Growth inhibitory activity against non small cell lung cancer NCI-H226 cell line was determined; conditions: Homo sapiens
MDA-MB-231 = test: Growth inhibitory activity against Breast cancer MDA-MB-231/ATCC cell line was determined; conditions: Homo sapiens
SW-620 = test: Growth inhibitory activity against colon cancer SW-620 cell line was determined; conditions: Homo sapiens
HCC 2998 = test: Growth inhibitory activity against colon cancer HCC2998 cell line was determined; conditions: Homo sapiens
HOP-62 = test: Growth inhibitory activity against non small cell lung cancer HOP-62 cell line was determined; conditions: Homo sapiens
LOX IMVI = test: Growth inhibitory activity against Melanoma LOX IMVI cell line; conditions: Homo sapiens
NCI-H460 [6] = test: In vitro percent of proliferation of vehicle treated NCI-H460 human lung cell lines was determined at 0.0010 M concentration

O=C(Oc1cccnc1)c1ccccc1Nc1ccnc(C(F)(F)F)c1
GI50 (SF-295): 310 nM
GI50 (PC-3): 420 nM
GI50 (UACC-257): 55000 nM
GI50 (NCI-H23): 60 nM
GI50 (NCI-H322M): 2900 nM
GI50 (MCF7 [1]): 160 nM
GI50 (SK-MEL-5): 170 nM
GI50 (Hs-578T): 570 nM
GI50 (NCI-H460 [2]): 340 nM
GI50 (BT-549): 10 nM
GI50 (HOP-92): 480 nM
GI50 (MOLT-4): 30 nM
GI50 (SF-268 [3]): 60 nM
GI50 (HL-60): 44000 nM
GI50 (SNB-19): 330 nM
GI50 (A498): 520 nM
GI50 (OVCAR-8): 690 nM
GI50 (UACC-62): 350 nM
GI50 (EKVX): 390 nM
GI50 (SR): 10 nM
GI50 (TK-10): 270 nM
Proliferation (SF-268 [4]): 75%
GI50 (A549): 720 nM
GI50 (SK-OV-3): 250 nM
GI50 (HT-29): 50 nM
GI50 (U-251): 520 nM
GI50 (MDA-MB-435): 60 nM
GI50 (RXF 393): 340 nM
GI50 (786-0): 270 nM
GI50 (HCT-116): 30 nM
GI50 (KM12): 310 nM
GI50 (SN12C): 410 nM
GI50 (SK-MEL-28): 660 nM
GI50 (M14): 30 nM
GI50 (HCT-15): 290 nM
GI50 (RPMI-8226): 50 nM
GI50 (K562): 40 nM
GI50 (COLO 205): 140 nM
GI50 (OVCAR-5): 490 nM
GI50 (ACHN): 260 nM
GI50 (CAKI-1): 50 nM
GI50 (NCI/ADR-RES): 80 nM
GI50 (OVCAR-3): 140 nM
GI50 (DU-145): 220 nM
GI50 (CCRF-CEM): 30 nM
GI50 (NCI-H522): 410 nM
Proliferation (MCF7 [5]): 62%
GI50 (SF-539): 10 nM
GI50 (OVCAR-4): 460 nM
GI50 (NCI-H226): 510 nM
GI50 (MDA-MB-231): 390 nM
GI50 (SW-620): 60 nM
GI50 (HCC 2998): 360 nM
GI50 (HOP-62): 10 nM
GI50 (LOX IMVI): 50 nM
Proliferation (NCI-H460 [6]): 22%

O=C(Oc1c(Cl)cc(Cl)cc1Cl)c1ccccc1Nc1ccnc(C(F)(F)F)c1
GI50 (SF-295): 4200 nM
GI50 (PC-3): 15000 nM
GI50 (UACC-257): 12000 nM
GI50 (NCI-H23): 2600 nM
GI50 (NCI-H322M): 20000 nM
GI50 (MCF7 [1]): 4700 nM
GI50 (SK-MEL-5): 3100 nM
GI50 (Hs-578T): 2600 nM
GI50 (NCI-H460 [2]): 3400 nM
GI50 (BT-549): 2400 nM
GI50 (HOP-92): 100000 nM
GI50 (MOLT-4): 100000 nM
GI50 (SF-268 [3]): 3900 nM
GI50 (HL-60): 3900 nM
GI50 (SNB-19): 7100 nM
GI50 (OVCAR-8): 3000 nM
GI50 (UACC-62): 1700 nM
GI50 (EKVX): 3300 nM
GI50 (TK-10): 3400 nM
Proliferation (SF-268 [4]): 55%
GI50 (A549): 3900 nM
GI50 (HT-29): 4600 nM
GI50 (U-251): 3000 nM
GI50 (MDA-MB-435): 1600 nM
GI50 (RXF 393): 9500 nM
GI50 (786-0): 2900 nM
GI50 (HCT-116): 1700 nM
GI50 (KM12): 4100 nM
GI50 (SN12C): 3100 nM
GI50 (SK-MEL-28): 24000 nM
GI50 (M14): 2100 nM
GI50 (HCT-15): 2700 nM
GI50 (K562): 2400 nM
GI50 (COLO 205): 6300 nM
GI50 (OVCAR-5): 4100 nM
GI50 (ACHN): 2400 nM
GI50 (CAKI-1): 7100 nM
GI50 (OVCAR-3): 4300 nM
GI50 (NCI-H522): 5700 nM
Proliferation (MCF7 [5]): 12%
GI50 (NCI-H226): 5900 nM
GI50 (MDA-MB-231): 3200 nM
GI50 (SW-620): 4600 nM
GI50 (HOP-62): 2700 nM
GI50 (LOX IMVI): 2000 nM
Proliferation (NCI-H460 [6]): 9%

COc1cccc(OC(=O)c2ccccc2Nc2ccnc(C(F)(F)F)c2)c1
GI50 (SF-295): 2500 nM
GI50 (PC-3): 3200 nM
GI50 (UACC-257): 5400 nM
GI50 (NCI-H23): 2000 nM
GI50 (NCI-H322M): 7400 nM
GI50 (MCF7 [1]): 7600 nM
GI50 (SK-MEL-5): 2200 nM
GI50 (Hs-578T): 4900 nM
GI50 (NCI-H460 [2]): 4100 nM
GI50 (BT-549): 8100 nM
GI50 (HOP-92): 5700 nM
GI50 (MOLT-4): 690 nM
GI50 (SF-268 [3]): 4700 nM
GI50 (HL-60): 2100 nM
GI50 (SNB-19): 3500 nM
GI50 (OVCAR-8): 3600 nM
GI50 (UACC-62): 3100 nM
GI50 (EKVX): 6600 nM
GI50 (TK-10): 11000 nM
Proliferation (SF-268 [4]): 43%
GI50 (A549): 3200 nM
GI50 (HT-29): 3700 nM
GI50 (U-251): 2900 nM
GI50 (MDA-MB-435): 1000 nM
GI50 (RXF 393): 21000 nM
GI50 (786-0): 3400 nM
GI50 (HCT-116): 1100 nM
GI50 (KM12): 2600 nM
GI50 (SN12C): 5400 nM
GI50 (SK-MEL-28): 12000 nM
GI50 (M14): 1300 nM
GI50 (HCT-15): 2800 nM
GI50 (RPMI-8226): 1000 nM
GI50 (K562): 740 nM
GI50 (COLO 205): 2200 nM
GI50 (OVCAR-5): 3500 nM
GI50 (ACHN): 3400 nM
GI50 (CAKI-1): 2700 nM
GI50 (OVCAR-3): 1600 nM
GI50 (NCI-H522): 7600 nM
Proliferation (MCF7 [5]): 42%
GI50 (NCI-H226): 8100 nM
GI50 (MDA-MB-231): 2100 nM
GI50 (SW-620): 4400 nM
GI50 (HOP-62): 2800 nM
GI50 (LOX IMVI): 1100 nM
Proliferation (NCI-H460 [6]): 13%
